The series has as its target HBV. The settings on record: ASO.

“And” between values parts separate entries of the source, which are not always exact repeats. Equal values may be shown once. HELM strings list units from the 5' end as sugar, base in round brackets, then linkage (d deoxyribose, r ribose, m 2'-O-methyl, p phosphodiester). Methylation of C is not given here. [moe] = 2'-O-(2-methoxyethyl) (MOE); [cEt] = constrained ethyl (cEt); [sp] = phosphorothioate linkage

In the case of “RNA1{[moe](A)[sp].[moe](C)[sp].[moe](G)[sp].d(T)[sp].d(G)[sp].d(C)[sp].d(A)[sp].d(G)[sp].d(A)[sp].d(G)[sp].d(G)[sp].d(T)[sp].[moe](G)[sp].[moe](A)[sp].[moe](A)[sp].[moe](G)}$$$$V2.0”, the target mRNA inhibition (HepG2, 0.07 µM) is 51% and 35%. “RNA1{[moe](G)[sp].[moe](A)[sp].[moe](G)[sp].[cEt](G)[sp].[cEt](T)[sp].d(G)[sp].d(A)[sp].d(A)[sp].d(G)[sp].d(C)[sp].d(G)[sp].d(A)[sp].[cEt](A)[sp].[cEt](G)[sp].[moe](T)[sp].[moe](G)[sp].[moe](C)}$$$$V2.0”: the target mRNA inhibition (HepG2, 0.009375 µM) was 19%; the target mRNA inhibition (HepG2, 0.01875 µM) amounted to 27%; the target mRNA inhibition (HepG2, 0.0375 µM) turned out to be 35%; the target mRNA inhibition (HepG2, 0.075 µM) is 48%; the target mRNA inhibition (HepG2, 0.15 µM) amounted to 50%; the target mRNA inhibition (HepG2, 0.3 µM) was 63%. With “RNA1{[moe](A)[sp].[moe](G)[sp].[moe](G)[sp].[moe](T)[sp].d(G)[sp].d(A)[sp].d(A)[sp].d(G)[sp].d(C)[sp].d(G)[sp].d(A)[sp].d(A)[sp].d(G)[sp].[moe](T)[sp].[moe](G)[sp].[moe](C)[sp].[moe](A)}$$$$V2.0”, the target mRNA inhibition (HepG2, 0.07 µM) was 58% and 56%. Consider “RNA1{[moe](C)[sp].[moe](C)[sp].[moe](G)[sp].[moe](C)[sp].d(A)[sp].d(G)[sp].d(T)[sp].d(A)[sp].d(T)[sp].d(G)[sp].d(G)[sp].d(A)[sp].d(T)[sp].[moe](C)[sp].[moe](G)[sp].[moe](G)[sp].[moe](C)}$$$$V2.0”, for which the target mRNA inhibition is, setting by setting: (HepG2, 0.0092593 µM) 0%; (HepG2, 0.0277778 µM) 38%; (HepG2, 0.07 µM) 87% and 74%; (HepG2, 0.0833333 µM) 69%; (HepG2, 0.25 µM) 86%. In the case of “RNA1{[moe](G)[sp].[moe](C)[sp].d(A)[sp].d(T)[sp].d(A)[sp].d(G)[sp].d(C)[sp].d(A)[sp].d(G)[sp].d(C)[sp].d(A)[sp].[moe](G)[sp].[moe](G)[sp].[moe](A)[sp].[moe](T)[sp].[moe](G)}$$$$V2.0”, the target mRNA inhibition (HepG2, 0.07 µM) is 39% and 24%.

For “RNA1{[moe](G)[sp].[moe](G)[sp].[moe](C)[sp].[moe](A)[sp].d(T)[sp].d(A)[sp].d(G)[sp].d(C)[sp].d(A)[sp].d(G)[sp].d(C)[sp].d(A)[sp].d(G)[sp].[moe](G)[sp].[moe](A)[sp].[moe](T)}$$$$V2.0”, for the setting “HepG2, 0.07 µM”, the target mRNA inhibition is 57% and 50%. Same read-out and setting: with “RNA1{[moe](A)[sp].[cEt](C)[sp].[cEt](A)[sp].d(G)[sp].d(C)[sp].d(T)[sp].d(T)[sp].d(G)[sp].d(G)[sp].d(A)[sp].d(G)[sp].d(G)[sp].d(C)[sp].[cEt](T)[sp].[cEt](T)[sp].[moe](G)}$$$$V2.0” the figure was 10% and 0%; with “RNA1{[moe](G)[sp].[moe](A)[sp].d(G)[sp].d(G)[sp].d(T)[sp].d(G)[sp].d(A)[sp].d(A)[sp].d(G)[sp].d(C)[sp].d(G)[sp].[moe](A)[sp].[moe](A)[sp].[moe](G)[sp].[moe](T)[sp].[moe](G)[sp].[moe](C)}$$$$V2.0”, 67% and 63%. As for “RNA1{[moe](C)[sp].[cEt](T)[sp].[cEt](G)[sp].d(A)[sp].d(G)[sp].d(G)[sp].d(C)[sp].d(C)[sp].d(C)[sp].d(A)[sp].d(C)[sp].d(T)[sp].d(C)[sp].[cEt](C)[sp].[cEt](C)[sp].[moe](A)}$$$$V2.0”, the target mRNA inhibition (HepG2, 0.0092593 µM) was found to be 58%; the target mRNA inhibition (HepG2, 0.0277778 µM) amounted to 83%; the target mRNA inhibition (HepG2, 0.07 µM) is 59% and 84%; the target mRNA inhibition (HepG2, 0.0833333 µM) amounted to 90%; the target mRNA inhibition (HepG2, 0.25 µM) came to 90%. Regarding “RNA1{[moe](A)[sp].[moe](G)[sp].[moe](A)[sp].[moe](A)[sp].[moe](G)[sp].[moe](T)[sp].d(C)[sp].d(C)[sp].d(A)[sp].d(C)[sp].d(C)[sp].d(A)[sp].d(C)[sp].d(G)[sp].d(A)[sp].[moe](G)[sp].[moe](T)}$$$$V2.0”, where the note is “HepG2, 0.07 µM”, the target mRNA inhibition was 39% and 30%. Same read-out and setting: with “RNA1{[moe](A)[sp].[moe](C)[sp].[moe](T)[sp].[moe](A)[sp].[moe](G)[sp].d(T)[sp].d(A)[sp].d(A)[sp].d(A)[sp].d(C)[sp].d(T)[sp].d(G)[sp].d(A)[sp].d(G)[sp].[moe](C)[sp].[moe](C)[sp].[moe](A)}$$$$V2.0” the figure was 67% and 61%; with “RNA1{[moe](G)[sp].[moe](C)[sp].d(A)[sp].d(C)[sp].d(T)[sp].d(A)[sp].d(G)[sp].d(T)[sp].d(A)[sp].d(A)[sp].d(A)[sp].[moe](C)[sp].[moe](T)[sp].[moe](G)[sp].[moe](A)[sp].[moe](G)}$$$$V2.0”, 54% and 47%.

“RNA1{[moe](C)[sp].[moe](G)[sp].d(C)[sp].d(A)[sp].d(G)[sp].d(T)[sp].d(A)[sp].d(T)[sp].d(G)[sp].d(G)[sp].d(A)[sp].[moe](T)[sp].[moe](C)[sp].[moe](G)[sp].[moe](G)[sp].[moe](C)}$$$$V2.0”: the target mRNA inhibition is, setting by setting: (HepG2, 0.0092593 µM) 6%; (HepG2, 0.0277778 µM) 31%; (HepG2, 0.07 µM) 76% and 71%; (HepG2, 0.0833333 µM) 56%; (HepG2, 0.25 µM) 80%. Turning to “RNA1{[moe](T)[sp].[moe](A)[sp].[moe](T)[sp].d(G)[sp].d(C)[sp].d(C)[sp].d(T)[sp].d(A)[sp].d(C)[sp].d(A)[sp].d(G)[sp].d(C)[sp].[moe](C)[sp].[moe](T)[sp].[moe](C)[sp].[moe](C)}$$$$V2.0”, the target mRNA inhibition (HepG2, 0.07 µM) was 49% and 46%.

Take “RNA1{[moe](A)[sp].[moe](C)[sp].[moe](C)[sp].d(A)[sp].d(C)[sp].d(T)[sp].d(G)[sp].d(A)[sp].d(A)[sp].d(C)[sp].d(A)[sp].d(A)[sp].[moe](A)[sp].[moe](T)[sp].[moe](G)[sp].[moe](G)}$$$$V2.0”: the target mRNA inhibition (HepG2, 0.07 µM) was 0% and 3%. Same read-out and setting: with “RNA1{[moe](C)[sp].[moe](A)[sp].[moe](A)[sp].[moe](T)[sp].d(T)[sp].d(T)[sp].d(A)[sp].d(T)[sp].d(G)[sp].d(C)[sp].d(C)[sp].d(T)[sp].d(A)[sp].[moe](C)[sp].[moe](A)[sp].[moe](G)[sp].[moe](C)}$$$$V2.0” the figure was 34% and 25%; with “RNA1{[moe](T)[sp].[moe](G)[sp].[moe](A)[sp].[moe](A)[sp].[moe](G)[sp].d(C)[sp].d(G)[sp].d(A)[sp].d(A)[sp].d(G)[sp].d(T)[sp].d(G)[sp].d(C)[sp].d(A)[sp].[moe](C)[sp].[moe](A)}$$$$V2.0”, 59% and 47%; with “RNA1{[moe](G)[sp].[moe](C)[sp].[moe](A)[sp].d(G)[sp].d(A)[sp].d(G)[sp].d(G)[sp].d(T)[sp].d(G)[sp].d(A)[sp].d(A)[sp].d(G)[sp].[moe](C)[sp].[moe](G)[sp].[moe](A)[sp].[moe](A)}$$$$V2.0”, 58% and 64%. In turn, “RNA1{[moe](A)[sp].[moe](C)[sp].[moe](C)[sp].d(A)[sp].d(C)[sp].d(T)[sp].d(G)[sp].d(A)[sp].d(A)[sp].d(C)[sp].d(A)[sp].d(A)[sp].[moe](A)[sp].[moe](T)[sp].[moe](G)[sp].[moe](G)[sp].[moe](C)}$$$$V2.0” showed a target mRNA inhibition (HepG2, 0.07 µM) of 78%. In the case of “RNA1{[moe](G)[sp].[moe](A)[sp].[moe](A)[sp].[moe](C)[sp].d(T)[sp].d(G)[sp].d(G)[sp].d(A)[sp].d(G)[sp].d(C)[sp].d(C)[sp].d(A)[sp].d(C)[sp].[moe](C)[sp].[moe](A)[sp].[moe](G)}$$$$V2.0”, for the setting “HepG2, 0.07 µM”, the target mRNA inhibition is 46% and 53%. For “RNA1{[moe](A)[sp].[moe](G)[sp].[moe](C)[sp].d(G)[sp].d(A)[sp].d(A)[sp].d(G)[sp].d(T)[sp].d(G)[sp].d(C)[sp].d(A)[sp].d(C)[sp].[moe](A)[sp].[moe](C)[sp].[moe](G)[sp].[moe](G)}$$$$V2.0”, the target mRNA inhibition was 11% (HepG2, 0.0092593 µM); 34% (HepG2, 0.0277778 µM); 79% and 70% (HepG2, 0.07 µM); 66% (HepG2, 0.0833333 µM); 87% (HepG2, 0.25 µM). Regarding “RNA1{[moe](C)[sp].[moe](A)[sp].d(C)[sp].d(T)[sp].d(A)[sp].d(G)[sp].d(T)[sp].d(A)[sp].d(A)[sp].d(A)[sp].d(C)[sp].[moe](T)[sp].[moe](G)[sp].[moe](A)[sp].[moe](G)[sp].[moe](C)[sp].[moe](C)}$$$$V2.0”, the target mRNA inhibition (HepG2, 0.07 µM) is 73% and 66%. Still for that read-out and setting: for “RNA1{[moe](A)[sp].[moe](C)[sp].[moe](C)[sp].[moe](A)[sp].[moe](C)[sp].[moe](T)[sp].d(G)[sp].d(A)[sp].d(A)[sp].d(C)[sp].d(A)[sp].d(A)[sp].d(A)[sp].d(T)[sp].d(G)[sp].[moe](G)[sp].[moe](C)}$$$$V2.0” the value was 59% and 42%. On the same count and under the same terms, for “RNA1{[moe](A)[sp].[moe](C)[sp].[moe](C)[sp].[moe](A)[sp].d(A)[sp].d(T)[sp].d(T)[sp].d(T)[sp].d(A)[sp].d(T)[sp].d(G)[sp].d(C)[sp].d(C)[sp].[moe](T)[sp].[moe](A)[sp].[moe](C)[sp].[moe](A)}$$$$V2.0” the value was 39% and 38%; for “RNA1{[moe](G)[sp].[moe](C)[sp].[moe](A)[sp].[moe](G)[sp].[moe](A)[sp].d(G)[sp].d(G)[sp].d(T)[sp].d(G)[sp].d(A)[sp].d(A)[sp].d(G)[sp].d(C)[sp].d(G)[sp].[moe](A)[sp].[moe](A)[sp].[moe](G)}$$$$V2.0”, 76% and 59%; for “RNA1{[moe](G)[sp].[moe](G)[sp].d(C)[sp].d(A)[sp].d(T)[sp].d(A)[sp].d(G)[sp].d(C)[sp].d(A)[sp].d(G)[sp].d(C)[sp].[moe](A)[sp].[moe](G)[sp].[moe](G)[sp].[moe](A)[sp].[moe](T)[sp].[moe](G)}$$$$V2.0”, 55% and 48%. “RNA1{[moe](G)[sp].[moe](G)[sp].[cEt](C)[sp].[cEt](A)[sp].d(T)[sp].d(A)[sp].d(G)[sp].d(C)[sp].d(A)[sp].d(G)[sp].d(C)[sp].d(A)[sp].d(G)[sp].[moe](G)[sp].[cEt](A)[sp].[moe](T)[sp].[moe](G)}$$$$V2.0”: the target mRNA inhibition by setting is: (HepG2, 0.009375 µM) 27%; (HepG2, 0.01875 µM) 29%; (HepG2, 0.0375 µM) 45%; (HepG2, 0.075 µM) 56%; (HepG2, 0.15 µM) 78%; (HepG2, 0.3 µM) 84%.
